Data as given in patent US20250049970A1, “DLL3 TARGETING PEPTIDES AND CONSTRUCTS THEREOF” (MARIANA ONCOLOGY INC., priority 2023, published 2025).
Where a SMILES comes first, the peptide text is derived from it. Bridges are numbered along the chain shown (N, C = ends). [ ]: non-standard residue; d: D form. The star is where a group is joined. DOTA = O=C(O)CN1CCN(CC(=O)O)CCN(CC(=O)*)CCN(CC(=O)O)CC1; X1 = O=CCN1CCN(CC(=O)O)CCN(CC(=O)*)CCN(CC(=O)O)CC1; 2Nal = N[C@@H](Cc1ccc2ccccc2c1)C(=O)O; Gly(4-THP) = N[C@H](C(=O)O)C1CCOCC1; tBuAla = CC(C)(C)C[C@H](N)C(=O)O; Cha = N[C@@H](CC1CCCCC1)C(=O)O; Chg = N[C@H](C(=O)O)C1CCCCC1; Tle = CC(C)(C)[C@H](N)C(=O)O

Tests used:
CT26.DLL3 cells [1] = assay: Cell binding (total uptake) of [177Lu]Lu-labeled peptide, CT26.DLL3 cells; format: cell-based; conditions: 1 h, 37° C.
Description: (§1) [^177Lu]LuCl3 was received from venders in HCl solution. For every mCi of [^177Lu]LuCl3 added to the reaction vial (1.5 mL Eppendorf vial), ammonium acetate buffer (0.2 M, pH 4.9, 100 μL, containing 1% w/v ascorbic acid and 6% v/v ethanol) and peptide conjugate (1 nmol; also referred to herein as “chelator-peptides”) was added. The pH of the solution was determined to be approximately 5 by using pH strips. The reaction vial was incubated at 80° C., 700 RPM for 17-20 minutes. A sample from the reaction was analyzed by RP-HPLC using an Agilent Infinity II 1260 HPLC to determine reaction completion and radiochemical purity of [^177Lu]Lu-chelator-peptides. HPLC conditions: Waters XBridge BEH C18 Column, 130A, 3.5 μm, 4.6 mm×250 mm; mobile phase: Solvent A=water (with 0.1% formic acid), solvent B=acetonitrile (with 0.1% formic acid). Gradients: 25-45% B in 10 minutes, 45-65% B in 12 minutes, 65-90% in 6 minutes at a flow rate of 0.5 mL/minutes Required amounts of the product was formulated in 1% PBSA for cell studies.
(§2) The study was conducted using SHP-77, CT26.WT, CT26.DLL3, and HEK293.DLL3 cells (Table 9)
(§3) Adherent cell studies: The cells were cultured in appropriate culture media (20 mL) in tissue culture treated T150 flasks at 37° C. and 5% C02. Adherent cells were detached (60-70% confluent) using 5 mL Versene at 37° C. for 3 minutes. After confirming the viability using countess and count of detached cells using Trypan blue, the cells were centrifuged at 4° C. for 5 minutes (1,000 rpm). The cell pellet obtained was washed once with PBS and resuspended in 1% PBSA to obtain the desired cell concentration (5-25 million cells/mL).
(§4) Cell numbers used for the assay were in the range of 5 million cells/condition-25 million cells/condition.
(§5) Total uptake: Cells were incubated with 300 μL (0.8 μCi) of the incubation buffer (containing radiolabeled peptide [^177Lu]Lu-test peptide) for 1 hour at 37° C. (Table 10). Post incubation, the cells were pelleted and washed 2 times using cold PBS+1% BSA. The supernatant and washes were combined and counted together as “unbound fraction” in a gamma counter. The cells were then resuspended in 300 μL of 1% PBS+1% BSA and counted in the gamma counter as “bound fraction”.
(§6) In these Tables, “A” represents % s ≤25; “B” represents 25 <% ≤50; “C” represents % >50.

CT26.DLL3 cells [2] = assay: Internalization of [177Lu]Lu-labeled peptide, CT26.DLL3 cells; format: cell-based; conditions: 1 h, 37° C.
Description: as §1, §2, §3, §4
(§7) Internalization: The resuspended cells in 300 μL of 1% PBSA and counted in the gamma counter as “bound fraction” were collected in 1.5 mL Eppendorf tube and pelleted. The pelleted cells were incubated with 300 μL of 50 mM Glycine pH=2.5 for 3 minutes and then pelleted discarding the supernatant. This process was repeated one more time. The pelleted cells were washed with 300 μL of cold 1% PBSA and then resuspended in 300 μl 0.3M NaOH. This was counted in the gamma counter as “internalized fraction”.
as §6

SHP-77 cells [3] = assay: Cell binding (total uptake) of [177Lu]Lu-labeled peptide, SHP-77 cells; format: cell-based; conditions: 1 h, 37° C.
Description: as §1, §2, §3
(§8) Suspension cell studies: The cells were cultured in appropriate culture media (20 mL) in tissue culture treated T150 flasks at 37° C. and 5% CO2. After confirming the viability and count of detached cells using Trypan blue, the cells were centrifuged at 4° C. for 5 minutes (1,000 rpm). The cell pellet obtained was washed once with PBS and resuspended in 1% PBSA to obtain the desired cell concentration (5-25 million cells/mL).
as §4, §5, §6

SHP-77 cells [4] = assay: Internalization of [177Lu]Lu-labeled peptide, SHP-77 cells; format: cell-based; conditions: 1 h, 37° C.
Description: as §1, §2, §3, §8, §4, §7, §6

[5] = tested on: nude mice bearing SHP-77 tumors; assay: Ex vivo biodistribution of radiolabeled peptides (% IA/g) in nude mice bearing SHP-77 tumors; conditions: [177Lu]Lu labelling, 24 hours post-injection, intravenous
In short: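 [177Lu]Lu-peptides were given as an IV tail-vein bolus once tumors reached 200-400 mm^3. Injected activity was set per mouse from syringe dose-calibrator readings. At set time points, tissues were weighed and gamma-counted, and counts were decay-corrected to injection and expressed as % IA/g.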

DLL3 = molecular target: T1, DLL3 (Homo sapiens, UniProt Q9NYJ7); assay: SPR KD, biotinylated human DLL3 on streptavidin chip (Table 8); design: biotin (biotinylated); conditions: biotinylated human DLL3 on streptavidin sensor chip, 25° C., 1:1 binding model; read-out: SPR KD
T1 sequence (Q9NYJ7 27-618): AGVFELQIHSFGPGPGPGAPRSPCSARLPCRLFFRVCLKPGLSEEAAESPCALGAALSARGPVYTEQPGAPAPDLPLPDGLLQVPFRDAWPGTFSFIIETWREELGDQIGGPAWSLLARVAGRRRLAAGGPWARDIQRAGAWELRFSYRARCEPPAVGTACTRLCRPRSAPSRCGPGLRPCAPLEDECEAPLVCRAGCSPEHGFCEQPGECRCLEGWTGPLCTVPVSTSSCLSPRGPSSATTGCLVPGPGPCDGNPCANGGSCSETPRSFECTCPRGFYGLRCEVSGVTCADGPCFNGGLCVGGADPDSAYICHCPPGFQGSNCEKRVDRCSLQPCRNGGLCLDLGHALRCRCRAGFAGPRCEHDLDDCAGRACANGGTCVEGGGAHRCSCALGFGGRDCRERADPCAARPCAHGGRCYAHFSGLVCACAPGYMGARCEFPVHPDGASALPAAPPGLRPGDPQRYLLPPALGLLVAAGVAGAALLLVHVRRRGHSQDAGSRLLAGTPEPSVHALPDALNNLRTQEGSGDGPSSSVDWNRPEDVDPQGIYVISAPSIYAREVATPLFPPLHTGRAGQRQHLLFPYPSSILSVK
Text: Biotinylated target ligand human DLL3 was immobilized on a streptavidin sensor chip. A reference surface was set up for nonspecific binding and refractive index changes. […] Sensorgram curves were fitted with 1:1 binding model, and affinity and kinetic parameters were obtained using Biacore Insight evaluation 4.0. software.

Compound	% Binding (CT26.DLL3 cells [1])	% Internalization (out of bound fraction) (CT26.DLL3 cells [2])	% Binding (SHP-77 cells [3])	% Internalization (out of bound fraction) (SHP-77 cells [4])	kidney uptake (% IA/g) [5]	tumor uptake (% IA/g) [5]	Kd (DLL3)
CC(=O)N[C@@H](Cc1c[nH]c2ccccc12)C(=O)N[C@H](C(=O)N[C@H](C(=O)N[C@H]1CSSC[C@@H](C(=O)N[C@@H](Cc2c[nH]c3ccccc23)C(=O)N2CCC[C@H]2C(N)=O)NC(=O)[C@H](CC(=O)O)NC(=O)[C@H](CCCCNC(=O)CN2CCN(CC(=O)O)CCN(CC(=O)O)CCN(CC(=O)O)CC2)NC(=O)[C@H](Cc2ccc3ccccc3c2)NC(=O)[C@H](CC(N)=O)NC(=O)[C@H](CC(N)=O)NC1=O)C(C)(C)C)[C@@H](C)O [compound 315, Ac-W-T-(Tbg)-C(3)-N-N-(2Nal)-Lys(DOTA)-D-C(3)-W-P-CONH2] (Ac-WT[Tle]CNN[2Nal]K(DOTA)DCWP-NH2; disulfide 4-10)	A (% s ≤25)	C (% >50)	B (25 <% ≤50)	B (25 <% ≤50)	C (“C” represents 0 < % IA/g ≤ 10 in)	A (“A” represents 0 < % IA/g ≤ 5 in tumor)	< 1 nM
CC(=O)N[C@@H](Cc1c[nH]c2ccccc12)C(=O)N[C@H](C(=O)N[C@H](C(=O)N[C@H]1CSSC[C@@H](C(=O)N[C@@H](Cc2c[nH]c3ccccc23)C(=O)N2CCC[C@H]2C(N)=O)NC(=O)[C@H](CC(=O)O)NC(=O)[C@H](CCCCNC(=O)CN2CCN(CC(=O)O)CCN(CC(=O)O)CCN(CC(=O)O)CC2)NC(=O)[C@H](Cc2ccc3ccccc3c2)NC(=O)[C@H](CC(N)=O)NC(=O)[C@H](CC(N)=O)NC1=O)C1CCCCC1)[C@@H](C)O [compound 318, Ac-W-T-(Chg)-C(3)-N-N-(2Nal)-Lys(DOTA)-D-C(3)-W-P-CONH2] (Ac-WT[Chg]CNN[2Nal]K(DOTA)DCWP-NH2; disulfide 4-10)	A (% s ≤25)	C (% >50)	B (25 <% ≤50)	C (% >50)	D (“D” represents % IA/g > 10 in kidney)	A (“A” represents 0 < % IA/g ≤ 5 in tumor)	< 1 nM
CC(=O)N[C@@H](Cc1c[nH]c2ccccc12)C(=O)N[C@H](C(=O)N[C@H](C(=O)N[C@H]1CSSC[C@@H](C(=O)N[C@@H](Cc2c[nH]c3ccccc23)C(=O)N2CCC[C@H]2C(N)=O)NC(=O)[C@H](CC(=O)O)NC(=O)[C@H](CCCCNC(=O)CN2CCN(CC(=O)O)CCN(CC(=O)O)CCN(CC(=O)O)CC2)NC(=O)[C@H](Cc2ccc3ccccc3c2)NC(=O)[C@H](CC(N)=O)NC(=O)[C@H](CC(N)=O)NC1=O)C1CCOCC1)[C@@H](C)O [compound 317, Ac-W-T-(THPG)-C(3)-N-N-(2Nal)-Lys(DOTA)-D-C(3)-W-P-CONH2] (Ac-WT[Gly(4-THP)]CNN[2Nal]K(DOTA)DCWP-NH2; disulfide 4-10)	A (% s ≤25)	C (% >50)	A (% s ≤25)	B (25 <% ≤50)	D (“D” represents % IA/g > 10 in kidney)	A (“A” represents 0 < % IA/g ≤ 5 in tumor)	< 1 nM
CC(=O)N[C@@H](Cc1c[nH]c2ccccc12)C(=O)N[C@H](C(=O)N[C@@H](CC(C)(C)C)C(=O)N[C@H]1CSSC[C@@H](C(=O)N[C@@H](Cc2c[nH]c3ccccc23)C(=O)N2CCC[C@H]2C(N)=O)NC(=O)[C@H](CC(=O)O)NC(=O)[C@H](CCCCNC(=O)CN2CCN(CC(=O)O)CCN(CC=O)CCN(CC(=O)O)CC2)NC(=O)[C@H](Cc2ccc3ccccc3c2)NC(=O)[C@H](CC(N)=O)NC(=O)[C@H](CC(N)=O)NC1=O)[C@@H](C)O [compound 316, Ac-W-T-(t-Bu-Ala)-C(3)-N-N-(2Nal)-Lys(DOTA)-D-C(3)-W-P-CONH2] (Ac-WT[tBuAla]CNN[2Nal]K(X1)DCWP-NH2; disulfide 4-10)	A (% s ≤25)	B (25 <% ≤50)	B (25 <% ≤50)	C (% >50)	D (“D” represents % IA/g > 10 in kidney)	A (“A” represents 0 < % IA/g ≤ 5 in tumor)	< 1 nM
CC(=O)N[C@@H](Cc1c[nH]c2ccccc12)C(=O)N[C@H](C(=O)N[C@@H](CC1CCCCC1)C(=O)N[C@H]1CSSC[C@@H](C(=O)N[C@@H](Cc2c[nH]c3ccccc23)C(=O)N2CCC[C@H]2C(N)=O)NC(=O)[C@H](CC(=O)O)NC(=O)[C@H](CCCCNC(=O)CN2CCN(CC(=O)O)CCN(CC(=O)O)CCN(CC(=O)O)CC2)NC(=O)[C@H](Cc2ccc3ccccc3c2)NC(=O)[C@H](CC(N)=O)NC(=O)[C@H](CC(N)=O)NC1=O)[C@@H](C)O [compound 323, Ac-W-T-(CHA)-C(3)-N-N-(2Nal)-Lys(DOTA)-D-C(3)-W-P-CONH2] (Ac-WT[Cha]CNN[2Nal]K(DOTA)DCWP-NH2; disulfide 4-10)	A (% s ≤25)	C (% >50)	A (% s ≤25)	B (25 <% ≤50)	D (“D” represents % IA/g > 10 in kidney)	A (“A” represents 0 < % IA/g ≤ 5 in tumor)	< 1 nM
